PubChem BioAssay AID248 (DTP/NCI, 2004)
Toxic doses and inconclusive results are not listed.

Tested on: L1210 leukemia ip in BDF1 mice, survival T/C
Assay: NCI In Vivo Anticancer Drug Screen. Data for tumor model L1210 Leukemia (intraperitoneal) in B6D2F1 (BDF1) mice
Conditions: endpoint: mean survival time, higher = longer survival
In short: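 In this screen, tumor-bearing mice given compound are compared to those given vehicle, and their survival values are reported as a treated-to-control quotient.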

[1] = dose: 100.0 mg/kg/injection, schedule: Q01DX009 (ip), vehicle: saline with Tween-80
[2] = dose: 100.0 mg/kg/injection, schedule: Q04DX003 (ip), vehicle: saline with Tween-80
[3] = dose: 200.0 mg/kg/injection, schedule: Q01DX009 (ip), vehicle: saline with Tween-80
[4] = dose: 200.0 mg/kg/injection, schedule: Q04DX003 (ip), vehicle: saline with Tween-80
[5] = dose: 400.0 mg/kg/injection, schedule: Q01DX009 (ip), vehicle: saline with Tween-80
[6] = dose: 400.0 mg/kg/injection, schedule: Q04DX003 (ip), vehicle: saline with Tween-80
[7] = dose: 100.0 mg/kg/injection, schedule: Q01DX009 (ip), vehicle: Klucel (hydroxypropylcellulose) (HPC)
[8] = dose: 200.0 mg/kg/injection, schedule: Q01DX009 (ip), vehicle: Klucel (hydroxypropylcellulose) (HPC)
[9] = dose: 100.0 mg/kg/injection, schedule: Q04DX003 (ip), vehicle: Klucel (hydroxypropylcellulose) (HPC)
[10] = dose: 200.0 mg/kg/injection, schedule: Q04DX003 (ip), vehicle: Klucel (hydroxypropylcellulose) (HPC)

C[Si](C)(CCCOCC1CO1)O[Si](C)(C)CCCOCC1CO1 (configuration not stated)
T/C [1]: 97 % of control
T/C [2]: 95 % of control
T/C [3]: 97 % of control
T/C [4]: 89 % of control
T/C [5]: 92 % of control
T/C [6]: 87 % of control

c1ccc(-c2oc(-c3ccccc3)c3c2CCCC3)cc1
T/C [7]: 100 % of control
T/C [8]: 98 % of control
T/C (dose: 400.0 mg/kg/injection, schedule: Q01DX009 (ip), vehicle: Klucel (hydroxypropylcellulose) (HPC)): 98 % of control

O=C(CCl)Nc1ncc([N+](=O)[O-])s1
T/C (dose: 12.5 mg/kg/injection, schedule: Q04DX003 (ip), vehicle: saline with Tween-80): 94 % of control
T/C (dose: 25.0 mg/kg/injection, schedule: Q04DX003 (ip), vehicle: saline with Tween-80): 91 % of control
T/C (dose: 50.0 mg/kg/injection, schedule: Q04DX003 (ip), vehicle: saline with Tween-80): 87 % of control

Nc1nc(N)c(N=O)c(Nc2ccc(O)cc2)n1
T/C [9]: 103 % of control
T/C (dose: 200.0 mg/kg/injection, schedule: Q01DX Z (ip), vehicle: methylcellulose (MC)): 91 % of control
T/C [10]: 97 % of control
T/C (dose: 400.0 mg/kg/injection, schedule: Q04DX003 (ip), vehicle: Klucel (hydroxypropylcellulose) (HPC)): 100 % of control

C=CCCCCCCCCC(=O)NCCCN1CCOCC1
T/C (dose: 50.0 mg/kg/injection, schedule: Q01DX009 (ip), vehicle: saline with Tween-80): 103 % of control
T/C [1]: 103 % of control

O=S(=O)(O)c1ccc2c(ccc3ccccc32)c1
T/C (dose: 75.0 mg/kg/injection, schedule: Q01DX001 (ip), vehicle: saline): 96 % of control

Cc1cnc2cc(Cl)ccc2n1
T/C (dose: 50.0 mg/kg/injection, schedule: Q01DX009 (ip), vehicle: Klucel (hydroxypropylcellulose) (HPC)): 94 % of control
T/C [7]: 93 % of control
T/C [9]: 102 % of control
T/C [8]: 107 % of control
T/C [10]: 96 % of control

c1ccc(P2(c3ccccc3)(c3ccccc3)C3C4C5C6C4C2C6C53)cc1 (configuration not stated)
T/C [2]: 104 % of control
T/C [4]: 109 % of control
T/C [6]: 90 % of control

O=C(O)CCCN1C(=O)CCC1=O
T/C (dose: 100.0 mg/kg/injection, schedule: Q04DX003 (ip), vehicle: saline): 97 % of control
T/C (dose: 200.0 mg/kg/injection, schedule: Q04DX003 (ip), vehicle: saline): 95 % of control
T/C (dose: 400.0 mg/kg/injection, schedule: Q04DX003 (ip), vehicle: saline): 106 % of control

S=C(Nc1ccccc1)N(C1CCCCC1)C1CCCCC1
T/C [5]: 158 % of control

COC1(OC)C2C(Cl)=C(Cl)C1(Cl)C(Br)C2c1ccccc1 (configuration not stated)
T/C (dose: 100.0 mg/kg/injection, schedule: Q01DX001 (ip), vehicle: carboxymethylcellulose (CMC)): 97 % of control
T/C (dose: 200.0 mg/kg/injection, schedule: Q01DX001 (ip), vehicle: carboxymethylcellulose (CMC)): 92 % of control
T/C (dose: 400.0 mg/kg/injection, schedule: Q01DX001 (ip), vehicle: carboxymethylcellulose (CMC)): 103 % of control

CC(C)C12NC(=O)NC(=O)N1CCS2 (configuration not stated)
T/C (dose: 50.0 mg/kg/injection, schedule: Q01DX001 (ip), vehicle: saline): 93 % of control
T/C (dose: 100.0 mg/kg/injection, schedule: Q01DX001 (ip), vehicle: saline): 96 % of control
T/C (dose: 200.0 mg/kg/injection, schedule: Q01DX001 (ip), vehicle: saline): 100 % of control
T/C (dose: 400.0 mg/kg/injection, schedule: Q01DX001 (ip), vehicle: saline): 100 % of control

O=C(CCC(O)c1ccccc1)c1ccccc1 (configuration not stated)
T/C [1]: 94 % of control
T/C [2]: 110 % of control
T/C [3]: 94 % of control
T/C [4]: 106 % of control
T/C [5]: 97 % of control
T/C [6]: 97 % of control

COc1cc(C)c(/C=N/NC(=O)c2ccncc2)cc1C
T/C (dose: 100.0 mg/kg/injection, schedule: Q04DX002 (ip), vehicle: carboxymethylcellulose (CMC)): 103 % of control
T/C (dose: 200.0 mg/kg/injection, schedule: Q04DX002 (ip), vehicle: carboxymethylcellulose (CMC)): 96 % of control
T/C (dose: 400.0 mg/kg/injection, schedule: Q04DX002 (ip), vehicle: carboxymethylcellulose (CMC)): 92 % of control
